Measured values published in patent publication US20190284136A1, “INDOLINE DERIVATIVES” (ViiV HEALTHCARE UK LIMITED, priority 2016, published 2019).
Like-named read-outs stand apart in the source and are kept apart here.

System: HIV
Experiment: Table 1 IC50 of the examples (assay method not given; patent concerns inhibiting HIV replication)
Format: cell-based

| SMILES | IC50 [nM] | IC50 (Human immunodeficiency virus 1) [nM] |
| --- | --- | --- |
| COc1c(F)cccc1C(=O)N1CCc2c1cc(C)c([C@H](OC(C)(C)C)C(=O)O)c2-c1cc(F)c2c(c1C)CCCO2 (atropisomer, axis not shown) [Example 45, (S)-2-(tert-Butoxy)-2-((R)-1-(3-fluoro-2-methoxybenzoyl)-4-(8-fluoro-5-methylchroman-6-yl)-6-methylindolin-5-yl)acetic acid] | 1 |  |
| Cc1cc2c(c(-c3cc(F)c4c(c3C)CCCO4)c1[C@H](OC(C)(C)C)C(=O)O)CCN2C(=O)c1ccc(C(F)(F)F)cc1 (atropisomer, axis not shown) [Example 46, (S)-2-(tert-Butoxy)-2-((R)-4-(8-fluoro-5-methylchroman-6-yl)-6-methyl-1-(4-(trifluoromethyl)benzoyl)indolin-5-yl)acetic acid] |  | 4 |
| Cc1cc(Cl)ccc1C(=O)N1CCc2c1cc(C)c([C@H](OC(C)(C)C)C(=O)O)c2-c1cc(F)c2c(c1C)CCCO2 (atropisomer, axis not shown) [Example 47, (S)-2-(tert-Butoxy)-2-((R)-1-(4-chloro-2-methylbenzoyl)-4-(8-fluoro-5-methylchroman-6-yl)-6-methylindolin-5-yl)acetic acid] |  | 4 |
| Cc1cc(C(=O)N2CCc3c2cc(C)c([C@H](OC(C)(C)C)C(=O)O)c3-c2cc(F)c3c(c2C)CCCO3)ccc1F (atropisomer, axis not shown) [Example 48, (S)-2-(tert-Butoxy)-2-((R)-1-(4-fluoro-3-methylbenzoyl)-4-(8-fluoro-5-methylchroman-6-yl)-6-methylindolin-5-yl)acetic acid] |  | 4 |
| Cc1cc2c(c(-c3cc(F)c4c(c3C)CCCO4)c1[C@H](OC(C)(C)C)C(=O)O)CCN2C(=O)c1cccc(F)c1Cl (atropisomer, axis not shown) [Example 49, (S)-2-(tert-Butoxy)-2-((R)-1-(2-chloro-3-fluorobenzoyl)-4-(8-fluoro-5-methylchroman-6-yl)-6-methylindolin-5-yl)acetic acid] |  | 2 |
| COc1ccc(Cl)cc1C(=O)N1CCc2c1cc(C)c([C@H](OC(C)(C)C)C(=O)O)c2-c1cc(F)c2c(c1C)CCCO2 (atropisomer, axis not shown) [Example 50, (S)-2-(tert-Butoxy)-2-((R)-1-(5-chloro-2-methoxybenzoyl)-4-(8-fluoro-5-methylchroman-6-yl)-6-methylindolin-5-yl)acetic acid] |  | 5 |
| Cc1cc2c(c(-c3cc(F)c4c(c3C)CCCO4)c1[C@H](OC(C)(C)C)C(=O)O)CCN2C(=O)c1cnccc1Cl (atropisomer, axis not shown) [Example 51, (S)-2-(tert-Butoxy)-2-((R)-1-(4-chloronicotinoyl)-4-(8-fluoro-5-methylchroman-6-yl)-6-methylindolin-5-yl)acetic acid] |  | 17 |
| Cc1cc2c(c(-c3cc(F)c4c(c3C)CCCO4)c1[C@H](OC(C)(C)C)C(=O)O)CCN2C(=O)c1cccc(Cl)c1 (atropisomer, axis not shown) [Example 52, (S)-2-(tert-Butoxy)-2-((R)-1-(3-chlorobenzoyl)-4-(8-fluoro-5-methylchroman-6-yl)-6-methylindolin-5-yl)acetic acid] |  | 2 |
| Cc1ccccc1C(=O)N1CCc2c1cc(C)c([C@H](OC(C)(C)C)C(=O)O)c2-c1cc(F)c2c(c1C)CCCO2 (atropisomer, axis not shown) [Example 53, (S)-2-(tert-Butoxy)-2-((R)-4-(8-fluoro-5-methylchroman-6-yl)-6-methyl-1-(2-methylbenzoyl)indolin-5-yl)acetic acid] |  | 3 |
| Cc1cc2c(c(-c3cc(F)c4c(c3C)CCCO4)c1[C@H](OC(C)(C)C)C(=O)O)CCN2C(=O)C1CCCC1 (atropisomer, axis not shown) [Example 54, (S)-2-(tert-Butoxy)-2-((R)-1-(cyclopentanecarbonyl)-4-(8-fluoro-5-methylchroman-6-yl)-6-methylindolin-5-yl)acetic acid] |  | 12 |
| Cc1ccc(F)c(C(=O)N2CCc3c2cc(C)c([C@H](OC(C)(C)C)C(=O)O)c3-c2cc(F)c3c(c2C)CCCO3)c1 (atropisomer, axis not shown) [Example 55, (S)-2-(tert-Butoxy)-2-((R)-1-(2-fluoro-5-methylbenzoyl)-4-(8-fluoro-5-methylchroman-6-yl)-6-methylindolin-5-yl)acetic acid] |  | 6 |
| Cc1cc2c(c(-c3cc(F)c4c(c3C)CCCO4)c1[C@H](OC(C)(C)C)C(=O)O)CCN2C(=O)c1ccc(Cl)c(F)c1 (atropisomer, axis not shown) [Example 56, (S)-2-(tert-Butoxy)-2-((R)-1-(4-chloro-3-fluorobenzoyl)-4-(8-fluoro-5-methylchroman-6-yl)-6-methylindolin-5-yl)acetic acid] |  | 2 |
| Cc1cc2c(c(-c3cc(F)c4c(c3C)CCCO4)c1[C@H](OC(C)(C)C)C(=O)O)CCN2C(=O)c1cc(F)cc(F)c1 (atropisomer, axis not shown) [Example 57, (S)-2-(tert-Butoxy)-2-((R)-1-(3,5-difluorobenzoyl)-4-(8-fluoro-5-methylchroman-6-yl)-6-methylindolin-5-yl)acetic acid] |  | 2 |
| Cc1cc2c(c(-c3cc(F)c4c(c3C)CCCO4)c1[C@H](OC(C)(C)C)C(=O)O)CCN2C(=O)CCc1ccccc1 (atropisomer, axis not shown) [Example 58, (S)-2-(tert-Butoxy)-2-((R)-4-(8-fluoro-5-methylchroman-6-yl)-6-methyl-1-(3-phenyl/propanoyl)indolin-5-yl)acetic acid] |  | 41 |
| Cc1cc2c(c(-c3cc(F)c4c(c3C)CCCO4)c1[C@H](OC(C)(C)C)C(=O)O)CCN2C(=O)c1cccc2c1CCCC2 (atropisomer, axis not shown) [Example 59, (S)-2-(tert-Butoxy)-2-((R)-4-(8-fluoro-5-methylchroman-6-yl)-6-methyl-1-(5,6,7,8-tetrahydronaphthalene-1-carbonyl)indolin-5-yl)acetic acid] |  | 6 |
| Cc1cc2c(c(-c3cc(F)c4c(c3C)CCCO4)c1[C@H](OC(C)(C)C)C(=O)O)CCN2C(=O)c1ccc(F)cc1F (atropisomer, axis not shown) [Example 60, (S)-2-(tert-Butoxy)-2-((R)-1-(2,4-difluorobenzoyl)-4-(8-fluoro-5-methylchroman-6-yl)-6-methylindolin-5-yl)acetic acid] |  | 6 |
| Cc1cc2c(c(-c3cc(F)c4c(c3C)CCCO4)c1[C@H](OC(C)(C)C)C(=O)O)CCN2C(=O)c1ccc(Cl)c(Cl)c1 (atropisomer, axis not shown) [Example 61, (S)-2-(tert-Butoxy)-2-((R)-1-(3,4-dichlorobenzoyl)-4-(8-fluoro-5-methylchroman-6-yl)-6-methylindolin-5-yl)acetic acid] |  | 17 |
| Cc1cc(F)ccc1C(=O)N1CCc2c1cc(C)c([C@H](OC(C)(C)C)C(=O)O)c2-c1cc(F)c2c(c1C)CCCO2 (atropisomer, axis not shown) [Example 62, (S)-2-(tert-Butoxy)-2-((R)-1-(4-fluoro-2-methylbenzoyl)-4-(8-fluoro-5-methylchroman-6-yl)-6-methylindolin-5-yl)acetic acid] |  | 6 |
